Experimental data from ChEMBL document CHEMBL3779770, “Synthesis, biological evaluation and molecular docking study of some novel indole and pyridine based 1,3,4-oxadiazole derivatives as potential antitubercular agents” (Bioorg Med Chem Lett, 2016).
Values after ≈ are worked out from the molar mass of the structure shown.

What was measured:
[1] = system: Mycobacterium tuberculosis variant bovis BCG; test: Antitubercular activity against active state Mycobacterium bovis BCG ATCC 35734 assessed as viable cells after 8 days by nitrate reductase assay; type: functional, organism-based; settings: ATCC 35734, 192 h
[2] = system: Mycobacterium tuberculosis variant bovis BCG; test: Antitubercular activity against dormant state Mycobacterium bovis BCG ATCC 35734 assessed as viable cells after 12 days by nitrate reductase assay; type: functional, organism-based; settings: ATCC 35734, 288 h

SMILES	IC50 [1]	MIC [1]	IC50 [2]	MIC [2]
O=C(/C=C\c1cccc(O)c1)N1N=C(c2ccncc2)OC1c1c[nH]c2ccccc12 (stereo not drawn)	> 30 µg/mL	> 30 µg/mL	> 30 µg/mL	> 30 µg/mL
O=C(/C=C\c1ccc(O)cc1)N1N=C(c2ccncc2)OC1c1c[nH]c2ccccc12 (stereo not drawn)	28.8 µg/mL (≈ 70.2 µM)	> 30 µg/mL	27.9 µg/mL (≈ 68 µM)	> 30 µg/mL
COc1ccc(/C=C\C(=O)N2N=C(c3ccncc3)OC2c2c[nH]c3ccccc23)cc1 (stereo not drawn)	> 30 µg/mL	> 30 µg/mL	> 30 µg/mL	> 30 µg/mL
O=C(/C=C\c1ccccc1Cl)N1N=C(c2ccncc2)OC1c1c[nH]c2ccccc12 (stereo not drawn)	> 30 µg/mL	> 30 µg/mL	> 30 µg/mL	> 30 µg/mL
O=C(/C=C\c1ccc(F)cc1)N1N=C(c2ccncc2)OC1c1c[nH]c2ccccc12 (stereo not drawn)	> 30 µg/mL	> 30 µg/mL	> 30 µg/mL	> 30 µg/mL
O=C(/C=C\c1cccc([N+](=O)[O-])c1)N1N=C(c2ccncc2)OC1c1c[nH]c2ccccc12 (stereo not drawn)	> 30 µg/mL	> 30 µg/mL	> 30 µg/mL	> 30 µg/mL
O=C(/C=C\c1cccc(Br)c1)N1N=C(c2ccncc2)OC1c1c[nH]c2ccccc12 (stereo not drawn)	> 30 µg/mL	> 30 µg/mL	21.7 µg/mL (≈ 45.9 µM)	> 30 µg/mL
O=C(/C=C/c1c(Cl)cccc1Cl)N1N=C(c2ccncc2)OC1c1c[nH]c2ccccc12 (stereo not drawn)	> 30 µg/mL	> 30 µg/mL	19.2 µg/mL (≈ 41.5 µM)	> 30 µg/mL
Cc1ccc(/C=C\C(=O)N2N=C(c3ccncc3)OC2c2c[nH]c3ccccc23)cc1 (stereo not drawn)	> 30 µg/mL	> 30 µg/mL	> 30 µg/mL	> 30 µg/mL
O=C(/C=C\c1ccc([N+](=O)[O-])cc1)N1N=C(c2ccncc2)OC1c1c[nH]c2ccccc12 (stereo not drawn)	1.42 µg/mL (≈ 3.23 µM)	2.5 µg/mL (≈ 5.69 µM)	1.37 µg/mL (≈ 3.12 µM)	2.37 µg/mL (≈ 5.39 µM)
O=C(/C=C\c1cccc(Cl)c1Cl)N1N=C(c2ccncc2)OC1c1c[nH]c2ccccc12 (stereo not drawn)	> 30 µg/mL	> 30 µg/mL	> 30 µg/mL	> 30 µg/mL
O=C(/C=C\c1ccccc1O)N1N=C(c2ccncc2)OC1c1c[nH]c2ccccc12 (stereo not drawn)	0.46 µg/mL (≈ 1.12 µM)	0.94 µg/mL (≈ 2.29 µM)	0.68 µg/mL (≈ 1.66 µM)	1.19 µg/mL (≈ 2.9 µM)
O=C(/C=C\c1ccccc1)N1N=C(c2ccncc2)OC1c1c[nH]c2ccccc12 (stereo not drawn)	12.3 µg/mL (≈ 31.3 µM)	> 30 µg/mL	11.2 µg/mL (≈ 28.5 µM)	> 30 µg/mL
O=C(/C=C\c1ccc(Cl)cc1)N1N=C(c2ccncc2)OC1c1c[nH]c2ccccc12 (stereo not drawn)	> 30 µg/mL	> 30 µg/mL	> 30 µg/mL	> 30 µg/mL
O=C(/C=C\c1ccccc1F)N1N=C(c2ccncc2)OC1c1c[nH]c2ccccc12 (stereo not drawn)	> 30 µg/mL	> 30 µg/mL	> 30 µg/mL	> 30 µg/mL
O=C(/C=C\c1ccc(Br)cc1)N1N=C(c2ccncc2)OC1c1c[nH]c2ccccc12 (stereo not drawn)	> 30 µg/mL	> 30 µg/mL	> 30 µg/mL	> 30 µg/mL
O=C(/C=C\c1ccc(Cl)cc1Cl)N1N=C(c2ccncc2)OC1c1c[nH]c2ccccc12 (stereo not drawn)	2.93 µg/mL (≈ 6.32 µM)	5.17 µg/mL (≈ 11.2 µM)	1.5 µg/mL (≈ 3.24 µM)	4.97 µg/mL (≈ 10.7 µM)
O=C(/C=C\c1cccc(F)c1)N1N=C(c2ccncc2)OC1c1c[nH]c2ccccc12 (stereo not drawn)	19.5 µg/mL (≈ 47.4 µM)	> 30 µg/mL	20.4 µg/mL (≈ 49.5 µM)	> 30 µg/mL
O=C(/C=C\c1cccc(Cl)c1)N1N=C(c2ccncc2)OC1c1c[nH]c2ccccc12 (stereo not drawn)	> 30 µg/mL	> 30 µg/mL	> 30 µg/mL	> 30 µg/mL
O=C(/C=C\c1ccccc1[N+](=O)[O-])N1N=C(c2ccncc2)OC1c1c[nH]c2ccccc12 (stereo not drawn)	0.48 µg/mL (≈ 1.09 µM)	1.03 µg/mL (≈ 2.34 µM)	0.36 µg/mL (≈ 0.819 µM)	0.85 µg/mL (≈ 1.93 µM)
NNC(=O)c1ccncc1 [ISONIAZID]	0.0012 µg/mL (≈ 0.00875 µM)	0.033 µg/mL (≈ 0.241 µM)	0.0017 µg/mL (≈ 0.0124 µM)	0.037 µg/mL (≈ 0.27 µM)
CO[C@H]1/C=C/O[C@@]2(C)Oc3c(C)c(O)c4c(O)c(c(/C=N/N5CCN(C)CC5)c(O)c4c3C2=O)NC(=O)/C(C)=C\C=C\[C@H](C)[C@H](O)[C@@H](C)[C@@H](O)[C@@H](C)[C@H](OC(C)=O)[C@@H]1C [RIFAMPIN]	0.0012 µg/mL (≈ 0.00146 µM)	0.015 µg/mL (≈ 0.0182 µM)	0.0015 µg/mL (≈ 0.00182 µM)	0.017 µg/mL (≈ 0.0207 µM)
